Measured values taken from patent publication US20200129472A1, “COMPOSITIONS AND METHODS FOR THE TREATMENT OF PERIPHERAL ARTERY DISEASE” (BOARD OF REGENTS OF THE UNIVERSITY OF NEBRASKA, priority 2017, published 2020).
Entries after “also recorded” stand apart in the source; their conditions may differ.

Test system: rat model of peripheral arterial disease (PAD rats, femoral artery occlusion)
Assay: Exercise intolerance test (motorized treadmill) in PAD rat model after epidural delivery of RTX
Assay type: in vivo
Excerpt: Catheter-based femoral artery occlusion was created by placing a modified PE50 catheter (its cavity filled with solid agarose) between common iliac artery and left femoral artery to interrupt hindlimb blood supply. The whole procedure is similar to the telemetry implant surgery. Generally, rats were anesthetized using a 2%-3% isoflurane:oxygen mixture. A warm water blanket was used to provide intra-operative heat support to prevent hypothermia. Rats were placed in the prone position and the surgical site (i.e., the femoral area) was cleared of hair, prepared with iodine or chlorhexidine, and the femoral artery was exposed. After a small incision was made, a modified PE50 catheter was placed into the femoral artery and advanced about 3.5 cm to the iliac artery at the aortic bifurcation. The distal end of the femoral artery was ligated with 4-0 Dexon suture. The skin was closed with external interrupted 4-0 or 3-0 prolene suture, which were removed in 10-14 days after the surgery.
Exercise testing for determination of intolerance time was performed in a motorized treadmill equipped with an electrical grid at the end of the lane. The animals were initially acclimated to the treadmill environment at a low speed (13 m/min, 0% grade) for 6 minutes. Then, data was recorded of the exercise duration and distance at the speed of the treadmill of 13 m/minute (0% grade) and increased of 3 m/minute each 2 minutes until exhaustion. Exhaustion was defined operationally as the time at which the rat was unable, or refused, to maintain its running speed for more than 15 seconds despite encouragement by mild electrical stimulation. The maximal speed and running distance were recorded when exhaustion occurred. Two methods were used to measure the exercise intolerance time in sham, PAD and PAD+RTX rats. With the first method, individual rats were run with 90%, 75%, 50% and 25% of its own maximal speed. The exercise intolerance time corresponding to individual running intensity was recorded and compared among groups. With the second method, a fixed running speed (37 m/minute) was used to run all rats among groups to get their exercise intolerance time.
To deplete skeletal muscle afferent neuron soma (L4-L5 DRGs), rats were anesthetized using 2%-3% isoflurane:oxygen mixture. Rats were placed in the prone position and the surgical site was cleared of hair, prepared with iodine or chlorhexidine. A small midline incision was made in the region of the T13-L1 thoracic vertebrae. Following dissection of the superficial muscles, a small hole (approximately 3 mm*3 mm) was made in the left side of T13 vertebral (ipsilateral). A polyethylene catheter (PE-10) was inserted into the subarachnoid space via left hole and gently advanced about 4.0 cm to the left L5 level in which the first injection (6 μg/ml, 10 μl) was made at a very slow speed to minimize the diffusion of RTX. Then the catheter was pulled back to left L4 to perform another injection (10 μl/each). Then the catheter was held for 15 minutes and then withdrawn. After that, silicon gels were used to seal the hole in the T13 vertebral. The skin overlying the muscle was closured by 3-0 polypropylene suture. Simple interrupted sutures were used to close the skin. Skin suture were removed 10-14 days after surgery. Betadine was applied to the wound and the rats were allowed to recover from the anesthesia.
The therapeutic efficacy of resiniferatoxin was tested in a in a rat model of peripheral arterial disease. As explained above, resiniferatoxin was administered to PAD rats by lumbar epidural administration at the time of femoral arterial occlusion. The resiniferatoxin (6 μg/ml, 10 μl/per ganglia) was injected between the ipsilateral L4 and L5 vertebrae into the epidural space at a concentration of 10 μl per ganglion. Healthy rats with sham treatment were also used as a positive control.

C=C(C)[C@]12C[C@@H](C)[C@@]34O[C@@](Cc5ccccc5)(OC1C3C=C(COC(=O)Cc1ccc(O)c(OC)c1)C[C@]1(O)C(=O)C(C)=CC41)O2 (stereo partly drawn) [resiniferatoxin, [(1R,6R,13R,15R,17R)-13-benzyl-6-hydroxy-4,17-dimethyl-5-oxo-15-(prop-1-en-2-yl)-12,14,18-trioxapentacyclo[11.4.1.0^1,10.0^2,6.0^11,15]octadeca-3,8-dien-8-yl]methyl 2-(4-hydroxy-3-methoxyphenyl)acetate]
ability to run for longer distances at a higher rate (time running at percent maximum intensity) (RTX 6 μg/ml, 10 μl per ganglion, lumbar epidural L4/L5, at the time of femoral arterial occlusion, FIG. 1D): increased ability to run for longer distances at a higher rate | ability to run at 37 m/minute (time run at 37 m/min) (RTX 6 μg/ml, 10 μl per ganglion, lumbar epidural L4/L5, at the time of femoral arterial occlusion, fixed speed 37 m/minute, FIG. 1C): increased ability to run at 37 m/minute | running distance (RTX 6 μg/ml, 10 μl per ganglion, lumbar epidural L4/L5, at the time of femoral arterial occlusion, vs PAD+control, FIG. 1A): increased running distances | maximal running speed (RTX 6 μg/ml, 10 μl per ganglion, lumbar epidural L4/L5, at the time of femoral arterial occlusion, vs PAD+control, FIG. 1B): increased maximal running speed | exercise limitations associated with PAD (RTX administered 4 weeks after femoral arterial occlusion (after onset of PAD), before vs after treatment, FIG. 2): reduces exercise limitations; also recorded: reduced the exercise limitations | exercise limitations associated with PAD (RTX given at the time of femoral arterial occlusion, FIG. 1): reduces the exercise limitations | duration of the statistically significant improvements in exercise performance (RTX given at the time of femoral arterial occlusion, time after PAD surgery): lasted for months
